Data as given in patent US4870210A, “Aminoguanidine derivative as anti-inflammatory agents” (American Home Products Corporation, priority 1987, dated 1989).

Key:
[1] = rat carrageenan paw edema assay; type: in vivo, rat (male Sprague-Dawley); conditions: po, 3 h, read-out: Oral ED50 (95% C.L.)
Protocol: The compounds of the invention are further tested in the rat carrageenan paw edema assay to determine their ability to inhibit the acute inflammatory response. This assay is carried out as follows: 140-180 gm male Sprague-Dawley rats, in groups of 6 animals are injected subcutaneously in the right paw with 0.1 ml of 1% carrageenan at zero time. Mercury plethysmographic readings (ml) of the paw are made at zero time and 3 hours later. Test compounds are suspended or dissolved in 0.5% methylcellulose and given perorally 1 hour prior to carrageenan administration. The increase in paw volume (edema in ml.) produced by the carrageenan is measured. […] Unpaired Student's t-test is used to determine statistical significance.

[2] = test system: synthesis of PGE2 by murine peritoneal macrophages; test: inhibition of the synthesis of PGE2 by murine peritoneal macrophages; type: cell-based, mouse (CD-1); conditions: Mus musculus, Peritoneal macrophage, zymosan or TPA stimulus, RIA
Protocol: (§1) The ability of the compounds of the invention to inhibit both leukotriene and prostaglandin synthesis is examined in an assay which measures the ability of the compounds of the invention to inhibit the synthesis of PGE2 and LTC4 by murine peritoneal macrophages.
(§2) The assay is carried out as follows:
(§3) Macrophages are removed from the peritoneal cavity of 55-57 day old CD-1 mice (killed by CO2 asphyxiation) by peritoneal lavage and centrifuged at 400×g for ten minutes. The cells are resuspended in Medium 199 and 4×10^6 cells are allowed to adhere on 35×10 mm Petri dishes for 1.5 hours at 37° C. in an atmosphere of 95% air and 5% CO2. The cell monolayers are washed and incubated overnight in Medium 199 supplemented with 10% heat inactivated bovine serum containing 1 μCi[^14 C]-arachidonic acid, or in the absence of ^14 C-arachidonic acid when the supernatant is to be assayed by radioimmunoassay (RIA). The labeled cells are then washed and incubated at 37° C. for 2 hours in Medium 199 with the prostaglandin stimuli, zymosan, or 12-o-tetradecanoyl-phorbol-13-acetate (TPA) and in the presence or absence of test compounds. Following incubation, the supernatant is removed and subjected to radioimmunoassay in order to determine the percent inhibition of prostaglandin E2 and leukotriene C4 by the test compounds.

[3] = test system: synthesis of LTB4 by rat glycogenelicited polymorphonuclear leukocytes (PMN); test: inhibition of the synthesis of LTB4 (lipoxygenase oxidation product) by rat glycogen-elicited polymorphonuclear leukocytes (PMN); type: cell-based, rat (female Wistar); conditions: Leukocyte, A23187 stimulated
Protocol: This is especially true with respect to 5,12-diHETE, which also denoted as LTB4 [see Ford-Hitchinson, J. Roy. Soc. Med., 74, 831 (1981)]. The assay of this Example measures the ability of the compounds of the invention to inhibit the synthesis of LTB4 by rat glycogenelicited polymorphonuclear leukocytes (PMN).
as §2
(§4) Rat polymorphonuclear leukocytes (PMNs) are obtained from female Wistar rats (150-200 g) which receive an injection of 6% glycogen (10 ml i.p.). Rats are sacrificed 18-24 hours post injection by CO2 asphyxiation and the elicited cells are harvested by peritoneal lavage using physiological saline (0.9% NaCl). The exudate is centrifuged at 400×g for 10 minutes. The supernatant fluid is discarded and the cell pellet is resuspended in a concentration of 2.0×10^7 cells/ml in HBSS containing Ca^++ and Mg^++ and 10 μM L-cyteine.
To 1 ml aliquots of cell suspension, test drugs or vehicle are added, then preincubated at 37° C. for 10 minutes. […] Supernatants are then analyzed by HPLC analysis on a 15 cm×4.6 mm ID Supelcosil LC-18 (Supelco)(3M) column, using a two solvent system at a flow rate of 1.4 ml total flow as follows: […]
Injections: 150 μl of each supernatant is injected directly onto column and ^3 H arachidonic acid metabolites are monitored using an on-line radioactivity detector (Ramona, IN/US, Fairfield, NJ). […]

[4] = test system: synthesis of the arachidonic acid cyclooxygenase oxidation product TxB2; test: inhibition of the synthesis of the cyclooxygenase oxidation product TxB2 by rat polymorphonuclear leukocytes; type: cell-based, rat (female Wistar); conditions: Leukocyte; rat PMN, A23187 stimulated
Protocol: as §4
To 1 ml aliquots of cell suspension, test drugs or vehicle are added, then preincubated at 37° C. for 10 minutes. A23187 (1 μM) and [^3 H]-AA (3.0 μCi/ml) are then added and the samples are further incubated for 10 minutes. The reaction is terminated by centrifugation and pelleting cells. Supernatants are then analyzed by HPLC analysis on a 15 cm×4.6 mm ID Supelcosil LC-18 (Supelco)(3M) column, using a two solvent system at a flow rate of 1.4 ml total flow as follows:
Co-chromatography with standard [^3 H] leukotriene B4 (LTB4) in medium of stimulated PMN exposed to drug is compared to that found in medium of stimulated cells exposed to no drug, generating percent inhibition.
In this assay, the procedure of Example 3 is carried out as described. […]
The results are calculated as in Example 3 and presented below: […]

[5] = test system: synthesis of LTC4 by murine peritoneal macrophages; test: inhibition of the synthesis of LTC4 by murine peritoneal macrophages; type: cell-based, mouse (CD-1); conditions: Mus musculus, Peritoneal macrophage, zymosan or TPA stimulus, RIA
Protocol: as §1, §2, §3

## CC(=O)Oc1ccccc1C(=O)O [Aspirin]
[1]
  ED50: 145 mg/kg

## CC(=NNC(=N)N)c1cccc(OCc2ccc3ccccc3c2)c1 [Example 1, 2-[1-[3-(2-Naphthalenylmethoxy)phenyl]ethylidene]-hydrazinecarboximidamide]
[2]
  IC50: 43 µM
[3]
  IC50: 8.9 µM
[4]
  IC50: 11.2 µM
[5]
  IC50: 33 µM

## COc1ccc2c(c1)c(CC(=O)O)c(C)n2C(=O)c1ccc(Cl)cc1 [Indomethacin]
[1]
  ED50: 3.7 mg/kg
